Results on three compounds are retold here after patent US8772318B2, “Methods and compositions related to targeting monoacylglycerol lipase” (The Scripps Research Institute, priority 2008, dated 2014).

Data set [1] concerns human cancer cell lines (C8161, SKOV3, 231MFP, MUM2C, OVCAR3). The experiment in a line: Lipid measurements in cancer cells. Type of data set: cell-based. The settings on record: aggressive melanoma, ovarian, breast cancer cells. As for the experimental part: Pharmacological inhibition of MAGL in cancer cells. Pharmacological inhibition studies were conducted as described previously (Chiang et al., Chem. Biol. 13:1041-1050, 2006). Cancer cells were maintained in RPMI medium 1640 with 10% (v/v) fetal calf serum at 37° C. in a humidified atmosphere of 5% CO2/95% air. At 80% confluency, cells were trypsinized and counted using a hemocytometer, and 1×10^6 cells were plated in 6 cm dishes (subconfluent). […] After incubation for 4 hr, the cells were harvested and analyzed by ABPP or LC-MS.
Lipid measurements in cancer cells. Lipid measurements were conducted similarly to protocols described previously (Chiang et al., 2006; supra). Cancer cells were grown in serum-free media for 4 hrs to minimize the contribution of serum-derived lipids to the cellular profiles. The cells (1×10^6 cells/6 cm dish, 80% confluency) were washed with twice with phosphate buffer saline (PBS), isolated by centrifugation at 1,400×g, and dounce-homogenized in 4 ml of a 2:1:1 mixture of chloroform:methanol:Tris buffer. Samples were homogenized in the presence of the following synthetic standards: C12:0 MAGE (10 nmol), C15:0 FFA (10 nmol). Organic and aqueous layers were separated by centrifugation at 2000×g for 5 min and the organic layer was collected. The aqueous layer was acidified (for metabolites such as LPA) by adding 5% formic acid, followed by the addition of 2 ml chloroform. The mixture was vortexed, and the organic layers were combined, dried down under N2 and dissolved in 100 μl chloroform, of which 30 μl was analyzed by LC-MS.
LC-MS analysis was performed by using an Agilent 1100 LC-MSD SL instrument. […] Mobile phase A was composed of a 95:5 ratio of water:methanol, and mobile phase B consisted of 2-propanol, methanol, and water in a 60:35:5 ratio. Solvent modifiers such as 0.1% formic acid and 0.1% ammonium hydroxide were used to assist ion formation as well as to improve the LC resolution in both positive and negative ionization modes, respectively. The flow rate for each run started at 0.1 ml/min for 5 min, to alleviate backpressure associated with injecting chloroform. The gradient started at 0% B and increased linearly to 100% B over the course of 45 min with a flow rate of 0.4 ml/min, followed by an isocratic gradient of 100% B for 17 min at 0.5 ml/min before equilibrating for 8 min at 0% B with a flow rate of 0.5 ml/min. MS analysis was performed with an electrospray ionization (ESI) source. The capillary voltage was set to 3.0 kV, and the fragmentor voltage was set to 100 V. The drying gas temperature was 350° C., the drying gas flow rate was 10 L/min, and the nebulizer pressure was 35 psi.
Lipidomic analysis was performed in both targeted and untargeted mode by LC-MS analysis. Standard lipid classes were quantitated by targeting using selected ion monitoring (SIM) (except for very high-abundance metabolites which were quantitated by untargeted analysis) and identities of metabolites were confirmed by coelution of metabolites with their respective standards and mass accuracy to within 10 ppm as determined with an accurate mass Agilent 6520 Accurate Mass QTOF-MS-MS. These lipids were quantified by measuring the area under the peak and were normalized to an internal standard (C12:0 MAGE in positive mode or C15:0 FFA in negative mode). […]

For data set [2], the target named is T1, MAGL (Homo sapiens, UniProt Q99685).
T1 construct: endogenous in cells; host or cells: human cancer lines (C8161, MUM2B, MUM2C, SKOV3, OVCAR3, 231MFP, MCF7)
T1 sequence (Q99685 1-303): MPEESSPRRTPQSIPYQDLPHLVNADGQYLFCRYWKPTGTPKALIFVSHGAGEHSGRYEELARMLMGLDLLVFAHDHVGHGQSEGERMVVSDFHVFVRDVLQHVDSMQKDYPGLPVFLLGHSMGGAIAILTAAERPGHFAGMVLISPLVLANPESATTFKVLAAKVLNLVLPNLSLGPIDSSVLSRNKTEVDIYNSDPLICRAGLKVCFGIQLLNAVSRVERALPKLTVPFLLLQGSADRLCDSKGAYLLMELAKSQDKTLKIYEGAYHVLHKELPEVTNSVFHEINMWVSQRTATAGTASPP
In words: shRNA knockdown of MAGL, activity by ABPP and C20:4 MAG hydrolysis. Type of data set: cell-based. The conditions noted are these: aggressive cancer lines, ABPP. As for the experimental part:
ABPP and hydrolytic activity assays of cancer cell proteomes. Identification and comparative quantitation of serine hydrolase activities from cancer cell proteomes by ABPP-MudPIT or gel-based ABPP was conducted as previously described using FP-biotin (5 μM) and FP-rhodamine (2 μM), respectively (Jessani et al., Proc. Natl. Acad. Sci. U.S.A 99:10335-10340, 2002; and Jessani et al., Nat. Methods 2:691-697, 2005). C20:4 MAG hydrolytic activity assays were performed as described previously (Blankman et al., Chem. Biol. 14:1347-1356, 2007). For ABPP experiments, cell lysate proteomes were treated with 2 μM FP-rhodamine for 30 min at room temperature (50 μl total reaction volume). Reactions were quenched with one volume of standard 4×SDS/PAGE loading buffer (reducing), separated by SDS/PAGE (10% acrylamide), and visualized in-gel with a Hitachi FMBio IIe flatbed fluorescence scanner (MiraiBio). Integrated band intensities were calculated for the labeled proteins and averaged from three independent cell samples to determine the level of each enzyme activity. IC50 values were determined from dose-response curves from three trials at each inhibitor concentration by using SigmaPlot 10.0. MAGL expression was also assessed by western blotting using standard procedures.
RNA interference studies in human cancer cell lines. […]

For another data set, the target named is T2, ABHD6 (Mus musculus, UniProt Q8R2Y0).
T2 construct: from tissue; host or cells: mouse brain membrane fraction
T2 sequence (Q8R2Y0 1-336): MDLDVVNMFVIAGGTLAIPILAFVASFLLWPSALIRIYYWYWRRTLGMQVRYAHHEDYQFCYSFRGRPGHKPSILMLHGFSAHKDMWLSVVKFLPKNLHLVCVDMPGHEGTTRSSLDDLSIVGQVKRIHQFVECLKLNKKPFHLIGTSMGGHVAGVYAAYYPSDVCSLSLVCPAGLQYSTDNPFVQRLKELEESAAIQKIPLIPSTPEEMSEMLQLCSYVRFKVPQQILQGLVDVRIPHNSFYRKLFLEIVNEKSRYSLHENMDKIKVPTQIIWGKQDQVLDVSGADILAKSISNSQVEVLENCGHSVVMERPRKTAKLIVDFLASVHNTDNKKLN
The experiment in a line: Competitive ABPP, mouse brain membrane proteome. Type of data set: biochemical. From the text:
(§1) First, serine hydrolases are susceptible to covalent inactivation by specific chemical groups that show little or no cross-reactivity with other enzyme classes. […] Second, the functional state of serine hydrolases can be collectively profiled in native biological systems using activity-based protein profiling (ABPP) methods (Cravat et al., Annu Rev Biochem 77:383-414, 2008). ABPP of serine hydrolases uses reporter-tagged fluorophosphonates (FPs), which serve as general activity-based probes for this large and diverse enzyme class (Liu et al., Proc. Natl. Acad. Sci. U.S.A. 96:14694-9, 1999). When performed in a competitive mode, ABPP can serve as a powerful screen to evaluate the potency and selectivity of small-molecule enzyme inhibitors directly in complex proteomes. The screen can be performed as described in the art, e.g., Liu et al., Proc. Natl. Acad. Sci. U.S.A. 96:14694-9, 1999; Li et al., J. Am. Chem. Soc. 129:9594-5, 2007; Leung et al., Nat. Biotech. 21:687-91, 2003; and Greenbaum et al., Mol. Cell. Proteomics 1:60-68, 2002.
(§2) Competitive activity-based protein profiling (ABPP) experiments. In vitro inhibitor selectivity was examined using a competitive ABPP method as described in the art (e.g., Li et al., J. Am. Chem. Soc. 129:9594-5, 2007; and Leung et al., Nat. Biotech. 21:687-91, 2003). Briefly, mouse brain membrane proteomes, prepared as described herein, were diluted to 1 mg/ml in PBS and pre-incubated with varying concentrations of inhibitors (1 nM to 10 μM) for 30 min at 37° C. prior to the addition of a FP-rhodamine at a final concentration of 2 μM in a 50 μl of total reaction volume. After 30 min at room temperature, the reactions were quenched with 4×SDS-PAGE loading buffer, boiled for 5 min at 90° C., subjected to SDS-PAGE, and visualized in-gel using a flatbed fluorescence scanner.
(§3) Every 10 min, 50 ul of the reaction was removed and treated with FP-rhodamine (2 μM) for 2 min, quenched with 4×SDS-PAGE loading buffer, and boiled for 5 min at 90° C. The combined reactions were subjected to SDS-PAGE and visualized in-gel using a flatbed fluorescence scanner. The percentage activity remaining was determined by measuring the integrated optical density corresponding to the MAGL or FAAH bands and the results were fit to an exponential curve to determine the pseudo-first order rate constants.

Data set [3] addresses T3, MAGL (Mus musculus, UniProt O35678).
T3 construct: from tissue; host or cells: mouse brain membrane fraction (C57Bl/6 mice for the in vivo studies)
T3 sequence (O35678 1-303): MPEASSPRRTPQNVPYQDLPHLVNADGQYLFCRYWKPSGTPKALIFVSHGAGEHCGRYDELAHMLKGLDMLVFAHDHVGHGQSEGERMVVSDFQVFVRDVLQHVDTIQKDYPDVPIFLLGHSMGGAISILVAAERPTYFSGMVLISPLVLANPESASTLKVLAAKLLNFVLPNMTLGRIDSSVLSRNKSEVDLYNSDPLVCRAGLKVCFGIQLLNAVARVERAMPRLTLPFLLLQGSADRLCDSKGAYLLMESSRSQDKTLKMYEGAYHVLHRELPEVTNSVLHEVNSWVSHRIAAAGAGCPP
The experiment in a line: Competitive ABPP, mouse brain membrane proteome. Type of data set: biochemical.
Text: as §1, §2, §3

The target in a further data set is T4, FAAH (Mus musculus, UniProt O08914).
T4 construct: from tissue; host or cells: mouse brain membrane fraction
T4 sequence (O08914 1-579): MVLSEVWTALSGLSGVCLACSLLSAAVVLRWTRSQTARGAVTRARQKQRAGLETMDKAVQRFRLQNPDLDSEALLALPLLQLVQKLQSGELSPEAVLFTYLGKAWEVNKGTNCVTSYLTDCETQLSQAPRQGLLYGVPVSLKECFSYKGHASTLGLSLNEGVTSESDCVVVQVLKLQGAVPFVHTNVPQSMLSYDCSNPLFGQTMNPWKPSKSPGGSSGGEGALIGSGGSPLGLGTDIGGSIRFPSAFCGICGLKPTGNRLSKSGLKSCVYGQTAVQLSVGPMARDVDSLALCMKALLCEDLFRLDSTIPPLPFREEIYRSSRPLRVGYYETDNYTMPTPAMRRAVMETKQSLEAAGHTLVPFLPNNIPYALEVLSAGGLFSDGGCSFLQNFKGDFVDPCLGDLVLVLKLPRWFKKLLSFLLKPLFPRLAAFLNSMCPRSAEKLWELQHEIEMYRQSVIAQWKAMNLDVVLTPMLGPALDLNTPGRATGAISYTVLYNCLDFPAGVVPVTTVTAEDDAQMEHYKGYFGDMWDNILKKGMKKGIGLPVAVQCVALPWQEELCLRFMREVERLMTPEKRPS
The experiment in a line: Competitive ABPP, mouse brain membrane proteome. Type of data set: biochemical.
Text: as §1, §2, §3

On to “shMAGL1: short hairpin RNA oligonucleotide for MAGL, 5′-CAACTTTCAAGGTCCTTGC-3′ (SEQ ID NO:1) (expressed or natural sequence)”, for which, in data set [1], the “FFA levels in shMAGL cells” value is recorded as “corresponding reductions” and the “MAG levels in shMAGL cells” value is listed as “significant elevations”. Further, the “other serine hydrolase activities” value with MAGL [2] is reported as “unaffected”.

With “shMAGL2: short hairpin RNA oligonucleotide for MAGL, 5′-AGACTACCCTGGGCTTCCT-3′ (SEQ ID NO:2) (expressed or natural sequence)”, in data set [1], the “FFA levels in shMAGL cells” value is reported as “corresponding reductions” and the “MAG levels in shMAGL cells” value was “significant elevations”. In addition, the “other serine hydrolase activities” value in the data set with MAGL [2] is recorded as “unaffected”.

As to `O=C(Oc1ccc([N+](=O)[O-])cc1)N1CCN(C(c2ccc(F)cc2)c2ccc(F)cc2)CC1` [WWL162], on ABHD6, the “effect on ABHD6 in competitive ABPP screen (FIG. 1B)” value was “preserve potency”. Further, the “effect on MAGL in competitive ABPP screen (FIG. 1B)” value on MAGL [3] is “preserve potency”. Further, the “effect on FAAH in competitive ABPP screen (FIG. 1B)” value at FAAH was “greatly reducing activity”.
